Measured values reported in ChEMBL document CHEMBL1152180, “Novel anthraquinone derivatives: synthesis via click chemistry approach and their induction of apoptosis in BGC gastric cancer cells via reactive oxygen species (ROS)-dependent mitochondrial pathway” (Bioorg Med Chem Lett, 2008).
Active and inactive are the calls of the source. The rule behind the calls is not given here.

Legend:
[1] = system: BGC; test: Induction of apoptosis in human BGC cells assessed as loss of mitochondrial membrane potential at 10 uM by JC-1 staining based laser confocal microscopy; assay type: functional, cell-based
[2] = Cytotoxicity against human BGC cells by MTT assay; assay type: functional, cell-based
[3] = system: BGC; test: Induction of apoptosis in human BGC cells assessed as loss of mitochondrial membrane potential at 10 uM by flow cytometry; assay type: functional, cell-based
[4] = Induction of apoptosis in human BGC cells assessed as dead cell count at 25 uM after 24 hrs using Annexin-V-FITC PI stain by flow cytometry; assay type: functional
[5] = Induction of apoptosis in human BGC cells assessed as accumulation at subG1 at 25 uM after 24 hrs by flow cytometry analysis; assay type: functional
[6] = Induction of apoptosis in human BGC cells assessed as late stage apoptotic cell count at 25 uM after 24 hrs using Annexin-V-FITC PI stain by flow cytometry; assay type: functional
[7] = Induction of apoptosis in human BGC cells assessed as early stage apoptotic cell count at 25 uM after 24 hrs using Annexin-V-FITC PI stain by flow cytometry; assay type: functional
[8] = system: BGC; test: Induction of apoptosis in human BGC cells assessed as morphological changes at 12.5 uM by Hoechst staining based laser confocal microscopy; assay type: functional, cell-based
[9] = system: BGC; test: Induction of apoptosis in human BGC cells assessed as bursting of ROS in mitochondria at 5 uM in presence of N-acetyl-cysteine; assay type: functional
[10] = Induction of apoptosis in human BGC cells assessed as non apoptotic cell count at 25 uM after 24 hrs using Annexin-V-FITC PI stain by flow cytometry; assay type: functional
[11] = system: BGC; test: Induction of apoptosis in human BGC cells assessed as bursting of ROS in mitochondria at 5 uM by flow cytometry; assay type: functional, cell-based
[12] = system: BGC; test: Induction of apoptosis in human BGC cells assessed as bursting of ROS in mitochondria at 5 uM by DCFH-DA based fluorescence scanning confocal microscopy; assay type: functional, cell-based

Row | SMILES | Activity [1] | IC50 [2] [µM] | Activity [3] | Activity [4] [%] | Activity [5] [%] | Activity [6] [%] | Activity [7] [%] | Activity [8] | Activity [9] | Activity [10] [%] | Activity [11] | Activity [12]
1 | C[N+]1(CCCn2cc(COc3cccc4c3C(=O)c3cccc(OCc5cn(CCC[N+]6(C)CC6)nn5)c3C4=O)nn2)CC1 | Active | 9.31 | Dose-dependent effect |  |  |  |  |  |  |  |  | 
2 | C[N+]1(CCn2cc(COc3cccc4c3C(=O)c3cccc(OCc5cn(CC[N+]6(C)CCCC6)nn5)c3C4=O)nn2)CCCC1 | Active | 6.52 | Dose-dependent effect |  |  |  |  |  |  |  |  | 
3 | C[N+]1(CCn2cc(COc3cccc4c3C(=O)c3cccc(OCc5cn(CC[N+]6(C)CCCCC6)nn5)c3C4=O)nn2)CCCCC1.[I-].[I-] | Active | 4.02 | Dose-dependent effect | 2.1 | 39.4 | 1 | 22.8 | Active | inactive | 74.2 | Dose-dependent effect | Active
